From patent publication US7250442B2, “Dihydroindol-2-one derivatives as steroid hormone nuclear receptor modulators” (Eli Lilly and Company, priority 2003, dated 2007)

Each molecule was assayed against T1, glucocorticoid receptor (Homo sapiens, UniProt P04150) (assay: Glucocorticoid Receptor Binding Assay ([3H]-dexamethasone displacement, A549 cell extract)). Conditions: A549 human lung epithelial cell extract, 1.86 nM [3H]-dexamethasone; read-out: GR Ki.
T1 construct: host or cells: A549 human lung epithelial cells (sonicated cell extract)
T1 sequence (P04150 1-777): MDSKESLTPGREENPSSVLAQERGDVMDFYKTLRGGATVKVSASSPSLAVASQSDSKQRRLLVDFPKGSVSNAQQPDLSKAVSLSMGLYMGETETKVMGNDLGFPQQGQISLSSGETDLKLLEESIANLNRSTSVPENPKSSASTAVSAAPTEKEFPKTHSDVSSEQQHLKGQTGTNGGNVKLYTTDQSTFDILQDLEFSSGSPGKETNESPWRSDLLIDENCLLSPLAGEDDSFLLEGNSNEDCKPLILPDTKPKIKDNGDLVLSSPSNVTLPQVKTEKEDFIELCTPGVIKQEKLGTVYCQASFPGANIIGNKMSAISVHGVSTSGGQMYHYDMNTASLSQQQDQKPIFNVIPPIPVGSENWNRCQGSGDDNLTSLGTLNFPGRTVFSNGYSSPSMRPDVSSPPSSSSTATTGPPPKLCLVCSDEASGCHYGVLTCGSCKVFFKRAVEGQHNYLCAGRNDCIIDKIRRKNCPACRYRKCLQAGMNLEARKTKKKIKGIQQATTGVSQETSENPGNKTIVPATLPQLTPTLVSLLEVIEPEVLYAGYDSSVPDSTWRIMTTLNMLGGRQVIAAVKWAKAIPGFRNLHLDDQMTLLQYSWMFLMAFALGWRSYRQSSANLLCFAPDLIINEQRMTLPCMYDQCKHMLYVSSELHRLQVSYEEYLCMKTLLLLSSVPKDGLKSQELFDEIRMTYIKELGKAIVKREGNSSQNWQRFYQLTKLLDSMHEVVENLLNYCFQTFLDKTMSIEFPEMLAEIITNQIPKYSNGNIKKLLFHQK
Method: Glucocorticoid Receptor Binding Assay:
A549 human lung epithelial cells (ATCC) are grown at a scale where gram quantity cell pellets are obtained. Harvested cell pellets are washed twice in cold phosphate buffered saline, centrifuged, and resuspended in cold assay binding buffer. The assay binding buffer consists of 10% glycerol, 50 mM Tris-HCl (pH7.2), 75 mM sodium chloride, 1.5 mM magnesium chloride, 1.5 mM EDTA, and 10 mM sodium molybdate. Cell suspensions were lysed via sonication, centrifuged, and the “extract” supernatant is snap frozen and stored at −80C. until needed.
GR binding assays are performed in a final volume of 140 ul containing 50-200 ug of A549 cell extract and 1.86 nM [^3H]-dexamethasone (Amersham) plus varying concentrations of test compound or vehicle. Briefly, assays are prepared at RT in 96-well Fisher 3356 plates, each well containing 100 ul of A549 cell extract, 20 ul of [^3H]-dexamethasone, and 20 ul of test compound/vehicle. Incubations are carried out at 4 degrees celsius for 16 hours. After incubation, 70 ul of 3× dextran-coated charcoal solution is added to each reaction, mixed, and incubated for 8 minutes at RT. 3×-dextran-coated charcoal solution consists of 250 ml assay binding buffer, 3.75 g Norit A charcoal (Sigma), and 1.25 g dextran T-70 (Amersham). Charcoal/unbound radioligand complexes are removed by centrifugation of the plate and 140 ul of supernatant from each well is transferred to another 96 well Optiplate (Packard Instruments). 200 ul of Microscint-20 scinillant (Packard Instruments) is added to each well and amount of receptor bound radioligand is determined using Packard Instruments TopCount instrument.
IC50 values, defined as the concentration of test compound required to decrease [^3H]-dexamethasone binding by 50%, are then determined. Ki values for each respective test compound can then be calculated by application of the Cheng-Prusoff equation as described in Cheng et al., Relationship Between The Inhibition Constant (Ki) and The Concentration of Inhibitor Which Causes 50% Inhibition (IC50) of an Enzymatic Reaction, Biochem. Pharmacol., 22: 3099-31088; (1973).

| Ki [µM] | SMILES |
| --- | --- |
| ≤ 0.5 | CCOCCN1C(=O)C(c2cc(C)c(O)c(C)c2)(c2cc(C)c(O)c(C)c2)c2ccccc21 [Example 80, 1-(2-Ethoxy-ethyl)-3,3-bis-(4-hydroxy-3,5-dimethyl-phenyl)-1,3-dihydro-indol-2-one] |
| ≤ 0.5 | Cc1cc(C2(c3cc(C)c(O)c(C)c3)C(=O)N(Cc3ccccc3Cl)c3ccccc32)cc(C)c1O [Example 11, 1-(2-Chloro-benzyl)-3,3-bis-(4-hydroxy-3,5-dimethyl-phenyl)-1,3-dihydro-indol-2-one] |
| ≤ 0.5 | Cc1cc(C2(c3cc(C)c(O)c(C)c3)C(=O)N(Cc3ccc([N+](=O)[O-])cc3)c3ccccc32)cc(C)c1O [Example 62, 3,3-Bis-(4-hydroxy-3,5-dimethyl-phenyl)-1-(4-nitro-benzyl)-1,3-dihydro-indol-2-one] |
| ≤ 0.5 | Cc1cc(C2(c3cc(C)c(O)c(C)c3)C(=O)N(Cc3ccccc3OC(F)F)c3ccccc32)cc(C)c1O [Example 79, 1-(2-Difluoromethoxy-benzyl)-3,3-bis-(4-hydroxy-3,5-dimethyl-phenyl)-1,3-dihydro-indol-2-one] |
| ≤ 0.5 | CCCN1C(=O)C(c2cc(C)c(O)c(C)c2)(c2cc(C)c(O)c(C)c2)c2ccccc21 [Example 5, 3,3-Bis-(4-hydroxy-3,5-dimethyl-phenyl)-1-propyl-1,3-dihydro-indol-2-one] |
| ≤ 0.5 | Cc1cc(C2(c3cc(C)c(O)c(C)c3)C(=O)N(Cc3cccc(F)c3F)c3ccccc32)cc(C)c1O [Example 66, 1-(2,3-Difluoro-benzyl)-3,3-bis-(4-hydroxy-3,5-dimethyl-phenyl)-1,3-dihydro-indol-2-one] |
| ≤ 0.5 | COc1nccc(N2C(=O)C(c3cc(C)c(O)c(C)c3)(c3cc(C)c(O)c(C)c3)c3ccccc32)n1 [Example 143, 3,3-Bis-(4-hydroxy-3,5-dimethyl-phenyl)-1-(2-methoxy-pyrimidin-4-yl)-1,3-dihydro-indol-2-one] |
| ≤ 1 | COc1ccc(-c2noc(CN3C(=O)C(c4cc(C)c(O)c(C)c4)(c4cc(C)c(O)c(C)c4)c4ccccc43)n2)cc1 [Example 142, 3,3-Bis-(4-hydroxy-3,5-dimethyl-phenyl)-1-[3-(4-methoxy-phenyl)-[1,2,4]oxadiazol-5-ylmethyl]-1,3-dihydro-indol-2-one] |
| ≤ 0.5 | Cc1cc(C2(c3cc(C)c(O)c(C)c3)C(=O)N(c3ccc(C(F)(F)F)cc3)c3ccccc32)cc(C)c1O [Example 131, 3,3-Bis-(4-hydroxy-3,5-dimethyl-phenyl)-1-(4-trifluoromethyl-phenyl)-1,3-dihydro-indol-2-one] |
| ≤ 10 | COc1ccc(-c2nc(CN3C(=O)C(c4cc(C)c(O)c(C)c4)(c4cc(C)c(O)c(C)c4)c4ccccc43)cs2)cc1 [Example 94, 3,3-Bis-(4-hydroxy-3,5-dimethyl-phenyl)-1-[2-(4-methoxy-phenyl)-thiazol-4-ylmethyl]-1,3-dihydro-indol-2-one] |
| ≤ 1 | Cc1cc(C2(c3cc(C)c(O)c(C)c3)C(=O)N(Cc3ccccc3C(F)(F)F)c3ccccc32)cc(C)c1O [Example 53, 3,3-Bis-(4-hydroxy-3,5-dimethyl-phenyl)-1-(2-trifluoromethyl-benzyl)-1,3-dihydro-indol-2-one] |
| ≤ 0.5 | Cc1cc(C2(c3cc(C)c(O)c(C)c3)C(=O)N(c3cccc(F)c3)c3ccccc32)cc(C)c1O [Example 130, 1-(3-Fluoro-phenyl)-3,3-bis-(4-hydroxy-3,5-dimethyl-phenyl)-1,3-dihydro-indol-2-one] |
| ≤ 0.5 | Cc1ccc2c(c1)C(c1cc(C)c(O)c(C)c1)(c1cc(C)c(O)c(C)c1)C(=O)N2Cc1ccccc1Cl [Example 22, 1-(2-Chloro-benzyl)-3,3-bis-(4-hydroxy-3,5-dimethyl-phenyl)-5-methyl-1,3-dihydro-indol-2-one] |
| ≤ 0.5 | CCOc1cccc(N2C(=O)C(c3cc(C)c(O)c(C)c3)(c3cc(C)c(O)c(C)c3)c3ccccc32)c1 [Example 137, 1-(3-Ethoxy-phenyl)-3,3-bis-(4-hydroxy-3,5-dimethyl-phenyl)-1,3-dihydro-indol-2-one] |
| ≤ 0.5 | Cc1cc(C2(c3cc(C)c(O)c(C)c3)C(=O)N(CC#N)c3ccccc32)cc(C)c1O [Example 78, [3,3-Bis-(4-hydroxy-3,5-dimethyl-phenyl)-2-oxo-2,3-dihydro-indol-1-yl]-acetonitrile] |
| ≤ 1 | Cc1cc(C2(c3cc(C)c(O)c(C)c3)C(=O)N(Cc3ccccc3Cl)c3ccc(Br)cc32)cc(C)c1O [Example 19, 5-Bromo-1-(2-chloro-benzyl)-3,3-bis-(4-hydroxy-3,5-dimethyl-phenyl)-1,3-dihydro-indol-2-one] |
| ≤ 0.5 | Cc1cc(C2(c3cc(C)c(O)c(C)c3)C(=O)N(c3cccc(C(F)(F)F)c3)c3ccccc32)cc(C)c1O [Example 127, 3,3-Bis-(4-hydroxy-3,5-dimethyl-phenyl)-1-(3-trifluoromethyl-phenyl)-1,3-dihydro-indol-2-one] |
| ≤ 0.5 | Cc1ccccc1N1C(=O)C(c2cc(C)c(O)c(C)c2)(c2cc(C)c(O)c(C)c2)c2ccccc21 [Example 132, 3,3-Bis-(4-hydroxy-3,5-dimethyl-phenyl)-1-o-tolyl-1,3-dihydro-indo 1-2-one] |
| ≤ 0.5 | Cc1ccc2c(c1)C(c1cc(C)c(O)c(C)c1)(c1cc(C)c(O)c(C)c1)C(=O)N2Cc1ccccc1C#N [Example 23, 2-[3,3-Bis-(4-hydroxy-3,5-dimethyl-phenyl)-5-methyl-2-oxo-2,3-dihydro-indol-1-ylmethyl]-benzonitrile] |
| ≤ 0.5 | COc1ccc(CN2C(=O)C(c3cc(C)c(O)c(C)c3)(c3cc(C)c(O)c(C)c3)c3ccccc32)cc1 [Example 1, 3,3-Bis-(4-hydroxy-3,5-dimethyl-phenyl)-1-(4-methoxy-benzyl)-1,3-dihydro-indol-2-one] |
| ≤ 1 | Cc1cc(C2(c3cc(C)c(O)c(C)c3)C(=O)N(Cc3ccccc3Cl)c3c(C)cccc32)cc(C)c1O [Example 24, 1-(2-Chloro-benzyl)-3,3-bis-(4-hydroxy-3,5-dimethyl-phenyl)-7-methyl-1,3-dihydro-indol-2-one] |
| ≤ 0.5 | Cc1ccc2c(c1)C(c1cc(C)c(O)c(C)c1)(c1cc(C)c(O)c(C)c1)C(=O)N2Cc1csc(-c2ccccc2)n1 [Example 92, 3,3-Bis-(4-hydroxy-3,5-dimethyl-phenyl)-5-methyl-1-(2-phenyl-thiazol-4-ylmethyl)-1,3-dihydro-indol-2-one] |
| ≤ 0.5 | Cc1cc(C2(c3cc(C)c(O)c(C)c3)C(=O)N(Cc3ccccc3Br)c3ccccc32)cc(C)c1O [Example 63, 1-(2-Bromo-benzyl)-3,3-bis-(4-hydroxy-3,5-dimethyl-phenyl)-1,3-dihydro-indol-2-one] |
| ≤ 0.5 | COc1ccc(N2C(=O)C(c3cc(C)c(O)c(C)c3)(c3cc(C)c(O)c(C)c3)c3ccccc32)cc1OC [Example 140, 1-(3,4-Dimethoxy-phenyl)-3,3-bis-(4-hydroxy-3,5-dimethyl-phenyl)-1,3-dihydro-indol-2-one] |
| ≤ 0.5 | Cc1cc(C2(c3cc(C)c(O)c(C)c3)C(=O)N(Cc3cccc(Br)c3)c3ccccc32)cc(C)c1O [Example 64, 1-(3-Bromo-benzyl)-3,3-bis-(4-hydroxy-3,5-dimethyl-phenyl)-1,3-dihydro-indol-2-one] |
| ≤ 0.5 | O=C1N(Cc2ccccc2)c2ccccc2C1(c1cc(Cl)c(O)c(Cl)c1)c1cc(Cl)c(O)c(Cl)c1 [Example 14, 1-Benzyl-3,3-bis-(3,5-dichloro-4-hydroxy-phenyl)-1,3-dihydro-indol-2-one] |
| ≤ 0.5 | Cc1cc(C2(c3cc(C)c(O)c(C)c3)C(=O)N(Cc3noc(C4CCC4)n3)c3ccccc32)cc(C)c1O [Example 86, 1-(5-Cyclobutyl-[1,2,4]oxadiazol-3-ylmethyl)-3,3-bis-(4-hydroxy-3,5-dimethyl-phenyl)-1,3-dihydro-indol-2-one] |
